According to PubChem BioAssay AID270 (DTP/NCI, 2004):
Where “and” joins values, the source holds several entries; their conditions need not be identical. Equal entries are not always repeated. Inconclusive results are not listed.

System: BDF1 mice, s.c. Lewis lung carcinoma, T/C %
Assay: NCI In Vivo Anticancer Drug Screen. Data for tumor model Lewis Lung Carcinoma (subcutaneous) in B6D2F1 (BDF1) mice
Outline: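 Tumor-bearing mice were treated with test compound, and either survival or tumor size was recorded. Values are the treated-group measurement divided by that of the vehicle-treated control group.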

[1] = endpoint: median survival time, dose: 100.0 mg/kg/injection, schedule: Q01DX009 (ip), vehicle: Klucel (hydroxypropylcellulose) (HPC), higher = longer survival
[2] = endpoint: median survival time, dose: 200.0 mg/kg/injection, schedule: Q01DX009 (ip), vehicle: Klucel (hydroxypropylcellulose) (HPC), higher = longer survival
[3] = endpoint: median survival time, dose: 400.0 mg/kg/injection, schedule: Q01DX009 (ip), vehicle: Klucel (hydroxypropylcellulose) (HPC), higher = longer survival

For `CC(C)CCC[C@@H](C)[C@H]1CC[C@H]2[C@@H]3CC=C4C[C@@H](O)CC[C@]4(C)[C@H]3CC[C@]12C`, the T/C [1] was 100 % of control, the T/C [2] was 90 % of control and the T/C [3] was 90 % of control. For the same compound, the T/C (endpoint: median survival time, dose: 800.0 mg/kg/injection, schedule: Q01DX009 (ip), vehicle: Klucel (hydroxypropylcellulose) (HPC), higher = longer survival) was 89 % of control.

With `COC1C(O)CC(OC2CC(OC3CC(O[C@@H]4C(=O)c5c(cc6cc(OC7CC(OC8CC(O)C(O)C(C)O8)C(O)C(C)O7)c(C)c(O)c6c5O)C[C@H]4[C@H](OC)C(=O)[C@@H](O)[C@@H](C)O)OC(C)C3O)OC(C)C2O)OC1C` (stereo not given in full) the T/C (endpoint: median survival time, dose: 37.5 micrograms/kg/injection, schedule: Q01DX009 (ip), vehicle: water, higher = longer survival) was 110 % of control, the T/C (endpoint: median survival time, dose: 75.0 micrograms/kg/injection, schedule: Q01DX009 (ip), vehicle: water, higher = longer survival) was 118 % of control and the T/C (endpoint: median survival time, dose: 150.0 micrograms/kg/injection, schedule: Q01DX009 (ip), vehicle: water, higher = longer survival) was 86 % of control.

`C/C(=C\c1ccc(C)cc1)[N+](=O)[O-]` was tested, and the T/C (endpoint: median survival time, dose: 25.0 mg/kg/injection, schedule: Q01DX009 (ip), vehicle: saline with Tween-80, higher = longer survival) was 96 % of control, the T/C (endpoint: median survival time, dose: 50.0 mg/kg/injection, schedule: Q01DX009 (ip), vehicle: saline with Tween-80, higher = longer survival) was 95 % of control and the T/C (endpoint: median survival time, dose: 100.0 mg/kg/injection, schedule: Q01DX009 (ip), vehicle: saline with Tween-80, higher = longer survival) was 94 % of control.

`CCCCCC/C=C/C#CCCCCCCCC(=O)O` was tested, and the T/C (endpoint: median survival time, dose: 18.75 mg/kg/injection, schedule: Q01DX009 (ip), vehicle: Klucel (hydroxypropylcellulose) (HPC), higher = longer survival) was 97 % of control, the T/C (endpoint: median survival time, dose: 37.5 mg/kg/injection, schedule: Q01DX009 (ip), vehicle: Klucel (hydroxypropylcellulose) (HPC), higher = longer survival) was 90 % of control and 91 % of control and the T/C (endpoint: median survival time, dose: 75.0 mg/kg/injection, schedule: Q01DX009 (ip), vehicle: Klucel (hydroxypropylcellulose) (HPC), higher = longer survival) was 102 % of control and 111 % of control.

For `CC(=O)O[C@]1(C(C)=O)CC[C@H]2[C@@H]3C[C@H](C)C4=CC(=O)CC[C@]4(C)[C@H]3CC[C@@]21C`, the T/C (endpoint: median survival time, dose: 50.0 mg/kg/injection, schedule: Q01DX009 (ip), vehicle: Klucel (hydroxypropylcellulose) (HPC), higher = longer survival) was 203 % of control, the T/C [1] was 204 % of control and the T/C [2] was 119 % of control. The T/C [3] was 203 % of control.

For `C[C@]1(O)CC[C@H]2[C@@H]3CCC4=CC(=O)CC[C@]4(C)[C@@]3(F)[C@@H](O)C[C@@]21C`, the T/C (endpoint: median survival time, dose: 12.5 mg/kg/injection, schedule: Q02DX009 (ip), vehicle: Klucel (hydroxypropylcellulose) (HPC), higher = longer survival) was 103 % of control, the T/C (endpoint: median survival time, dose: 25.0 mg/kg/injection, schedule: Q02DX009 (ip), vehicle: Klucel (hydroxypropylcellulose) (HPC), higher = longer survival) was 93 % of control and the T/C (endpoint: median survival time, dose: 50.0 mg/kg/injection, schedule: Q02DX009 (ip), vehicle: Klucel (hydroxypropylcellulose) (HPC), higher = longer survival) was 87 % of control. For the same compound, the T/C (endpoint: median survival time, dose: 100.0 mg/kg/injection, schedule: Q02DX009 (ip), vehicle: Klucel (hydroxypropylcellulose) (HPC), higher = longer survival) was 109 % of control, the T/C (endpoint: median survival time, dose: 200.0 mg/kg/injection, schedule: Q02DX009 (ip), vehicle: Klucel (hydroxypropylcellulose) (HPC), higher = longer survival) was 103 % of control and the T/C (endpoint: median survival time, dose: 400.0 mg/kg/injection, schedule: Q02DX009 (ip), vehicle: Klucel (hydroxypropylcellulose) (HPC), higher = longer survival) was 96 % of control.

For `COC1CCC(NC(=O)N(CCCl)N=O)CC1` (stereo not given), the T/C (endpoint: median survival time, dose: 16.0 mg/kg/injection, schedule: Q01DX001 (ip), vehicle: saline with Tween-80, higher = longer survival) was 121 % of control and the T/C (endpoint: median survival time, dose: 82.0 mg/kg/injection, schedule: Q01DX001 (ip), vehicle: saline with Tween-80, higher = longer survival) was 111 % of control.

With `NCCCOc1ccc([N+](=O)[O-])cc1Cl` the T/C (endpoint: median survival time, dose: 12.5 mg/kg/injection, schedule: Q01DX009 (ip), vehicle: saline, higher = longer survival) was 87 % of control, the T/C (endpoint: median survival time, dose: 50.0 mg/kg/injection, schedule: Q01DX009 (ip), vehicle: saline, higher = longer survival) was 100 % of control and 120 % of control and 121 % of control and the T/C (endpoint: median survival time, dose: 100.0 mg/kg/injection, schedule: Q01DX009 (ip), vehicle: saline, higher = longer survival) was 87 % of control and 101 % of control and 112 % of control.

With `CCCCCCCCCCCCCCCCCC(=O)NN` the T/C [2] was 120 % of control.

In the case of `CC(=O)OC(C)(C)/C=C/C(=O)[C@](C)(O)[C@H]1[C@H](O)C[C@@]2(C)[C@@H]3CC=C4[C@@H](C[C@H](O)C(=O)C4(C)C)[C@]3(C)C(=O)C[C@]12C`, the T/C (endpoint: mean tumor weight, dose: 0.16 mg/kg/injection, schedule: Q01DX011 (ip), vehicle: saline, higher = larger tumour) was 69 % of control, the T/C (endpoint: mean tumor weight, dose: 0.25 mg/kg/injection, schedule: Q01DX011 (ip), vehicle: saline, higher = larger tumour) was 53 % of control and the T/C (endpoint: mean tumor weight, dose: 0.38 mg/kg/injection, schedule: Q01DX011 (ip), vehicle: saline, higher = larger tumour) was 83 % of control. For the same compound, the T/C (endpoint: mean tumor weight, dose: 0.4 mg/kg/injection, schedule: Q01DX011 (ip), vehicle: carboxymethylcellulose (CMC), higher = larger tumour) was 67 % of control, the T/C (endpoint: mean tumor weight, dose: 0.4 mg/kg/injection, schedule: Q01DX011 (ip), vehicle: saline, higher = larger tumour) was 48 % of control and the T/C (endpoint: mean tumor weight, dose: 0.8 mg/kg/injection, schedule: Q01DX011 (ip), vehicle: saline, higher = larger tumour) was 42 % of control.
